Where “and” joins values, the source holds several entries; their conditions need not be identical. Equal entries are not always repeated. Where two headings read alike, the source gives them in different places.
Legend:
[1] = test system: CV-A24; test: microbe, parasite or virus in culture; format: cell-based, coxsackievirus A24
[2] = test system: EV-D68; test: microbe, parasite or virus in culture; format: cell-based, enterovirus D68; conditions: for EC50: Enterovirus D
[3] = test system: EV-A71 (strain BrCr); format: cell-based, enterovirus A71
[4] = test system: CV-B3 (strain Nancy); format: cell-based, coxsackievirus B3
[5] = test system: all representative viruses; format: cell-based
[6] = target: T1, human DAT (Homo sapiens, UniProt Q01959); format: cell-based; conditions: for DAT, Mean (Figure 8B): Control = 100; for DAT, Mean as % (Figure 8B): Control = 100%
T1 construct: expressed in transfected cells; host or cells: HEK293 (gift of Dr. Hoener, F. Hoffmann-La Roche)
T1 sequence (Q01959 whole entry): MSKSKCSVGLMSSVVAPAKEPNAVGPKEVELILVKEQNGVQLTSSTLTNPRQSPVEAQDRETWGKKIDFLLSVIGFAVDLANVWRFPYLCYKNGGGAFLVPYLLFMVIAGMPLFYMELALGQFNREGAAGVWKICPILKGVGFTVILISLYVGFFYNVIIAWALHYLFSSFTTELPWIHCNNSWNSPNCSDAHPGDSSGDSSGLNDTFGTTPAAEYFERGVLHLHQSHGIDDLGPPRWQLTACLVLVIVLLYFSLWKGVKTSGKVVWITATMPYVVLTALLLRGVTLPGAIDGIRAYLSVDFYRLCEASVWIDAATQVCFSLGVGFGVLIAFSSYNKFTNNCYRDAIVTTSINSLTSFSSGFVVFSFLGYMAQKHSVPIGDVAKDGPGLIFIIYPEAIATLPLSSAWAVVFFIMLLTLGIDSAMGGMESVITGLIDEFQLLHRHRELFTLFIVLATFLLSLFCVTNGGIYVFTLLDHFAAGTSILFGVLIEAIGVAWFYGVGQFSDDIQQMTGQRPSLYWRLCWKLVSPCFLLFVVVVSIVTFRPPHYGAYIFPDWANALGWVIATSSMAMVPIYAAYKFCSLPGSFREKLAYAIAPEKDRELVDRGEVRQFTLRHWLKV

[7] = test system: HeLa R19 cells
[8] = Enterovirus C, CVA24, HeLa R19, read-out: EC50 CV-A24
[9] = Enterovirus C, CVA24, HeLa R19, read-out: EC50 CV-A24 strain Joseph
[10] = EVD68, HeLa R19, read-out: EC50 EV-D68 strain 4310900947
[11] = EVD68, HeLa R19, read-out: EC50 EV-D68 strain 4310901348
[12] = EVD68, HeLa R19, read-out: EC50 EV-D68 strain 4310902042
[13] = EVD68, HeLa R19, read-out: EC50 EV-D68 strain 4310902284
[14] = EVD68, HeLa R19, read-out: EC50 EV-D68 strain 4311000742

COc1ccc(N(Cc2ccc(F)cc2)C(=O)c2ccco2)cc1 [Compound 1, N-(4-fluorobenzyl)-N-(4-methoxyphenyl)furan-2-carboxamide]
EC50 [1, 8]: > 30 µM
EC50 ([1]; Enterovirus C, CVA24, HeLa R19, read-out: EC50 CV-A24 Average): > 30 µM
EC50 ([1]; Enterovirus C, CVA24, HeLa R19, read-out: EC50 CV-A24 Experiement 3): > 30 µM
EC50 ([1]; Enterovirus C, CVA24, HeLa R19, read-out: EC50 CV-A24 Experiment 1): > 30 µM
EC50 ([1]; Enterovirus C, CVA24, HeLa R19, read-out: EC50 CV-A24 Experiment 2): > 30 µM
EC50 [1, 9]: > 30 µM
inhibition of EV-D68 replication (in words) [2]: antiviral activity
Figure 7 dose-response raw data, EV-D68 (triplicate values) ([2]; Concentration 0.001 µM): 8.529 and 8.161 and 15.8928
Figure 7 dose-response raw data, EV-D68 (triplicate values) ([2]; Concentration 0.0412 µM): 9.388 and 8.898 and 11.4747
Figure 7 dose-response raw data, EV-D68 (triplicate values) ([2]; Concentration 0.1235 µM): 8.529 and 8.161 and 15.8928
Figure 7 dose-response raw data, EV-D68 (triplicate values) ([2]; Concentration 0.3704 µM): 8.529 and 8.161 and 15.8928
Figure 7 dose-response raw data, EV-D68 (triplicate values) ([2]; Concentration 1.1111 µM): 105.527 and 109.089 and 109.58
Figure 7 dose-response raw data, EV-D68 (triplicate values) ([2]; Concentration 3.3333 µM): 104.422 and 100.246 and 109.335
Figure 7 dose-response raw data, EV-D68 (triplicate values) ([2]; Concentration 10 µM): 100.368 and 102.702 and 104.422
EC50 ([2]; EVD68, HeLa R19, read-out: EC50 EV-D68 Experiement 3): 0.31 µM
EC50 ([2]; EVD68, HeLa R19, read-out: EC50 EV-D68 Experiment 1): 0.25 µM
EC50 ([2]; EVD68, HeLa R19, read-out: EC50 EV-D68 Experiment 2): 0.39 µM
EC50 [2, 10]: 3.65 ± 0.34 µM
EC50 [2, 11]: 4.47 ± 0.13 µM
EC50 [2, 12]: 4.05 ± 0.65 µM
EC50 [2, 13]: 2.23 ± 0.12 µM
EC50 [2, 14]: 3.83 ± 0.4 µM
EC50 ([2]; EVD68, HeLa R19, read-out: EC50 Exp2): 1.95 µM
virus titer, TCID50/ml (Figure 2A) ([3]; compound concentration 0.001 µM): 316228 TCID50/ml
virus titer, TCID50/ml (Figure 2A) ([3]; compound concentration 0.01 µM): 316228 TCID50/ml
virus titer, TCID50/ml (Figure 2A) ([3]; compound concentration 0.1 µM): 316228 TCID50/ml
virus titer, TCID50/ml (Figure 2A) ([3]; compound concentration 0.3 µM): 316228 TCID50/ml
virus titer, TCID50/ml (Figure 2A) ([4]; compound concentration 1 µM): 1000000000 TCID50/ml
virus titer, TCID50/ml (Figure 2A) ([4]; compound concentration 10 µM): 31622.8 TCID50/ml and 16982.4 TCID50/ml and 21379.6 TCID50/ml

O=C(c1ccco1)N(Cc1ccc(C(F)(F)F)cc1)c1ccccc1 [Compound 19d, N-phenyl-N-(4-(trifluoromethyl)benzyl)furan-2-carboxamide]
EC50 [1, 8]: 19.5 ± 0.55 µM
EC50 [1, 9]: 18.7 ± 0.67 µM
EC50 ([1]; Enterovirus C, CVA24, HeLa R19, read-out: EC50 Exp1): 19 µM
EC50 ([1]; Enterovirus C, CVA24, HeLa R19, read-out: EC50 Exp2): 20.1 µM
EC50 ([1]; read-out: EC50 Exp1): 18 µM
EC50 ([1]; read-out: EC50 Exp2): 19.3 µM
resistance of reverse-engineered EV-D68 2C T196S (in words) [2]: provided 19d resistance, although resistance was rather moderate
resistance of reverse-engineered EV-D68 2C V96M (in words) [2]: provided 19d resistance, although resistance was rather moderate
multicycle replication assay read-out, EV-D68 Fermon ([2]; 0.2344 µM): 10 and 12
multicycle replication assay read-out, EV-D68 Fermon ([2]; 0.4688 µM): 22 and 14 and 23
multicycle replication assay read-out, EV-D68 Fermon ([2]; 0.9375 µM): 10 and 16.5525
multicycle replication assay read-out, EV-D68 Fermon ([2]; 1.875 µM): 102.405 and 111.906 and 97.379
multicycle replication assay read-out, EV-D68 Fermon ([2]; 3.75 µM): 102.405 and 111.906 and 97.379
multicycle replication assay read-out, EV-D68 Fermon ([2]; 7.5 µM): 109.948 and 106.039 and 109.278
multicycle replication assay read-out, EV-D68 Fermon ([2]; 15 µM): 109.948 and 106.039 and 109.278
multicycle replication assay read-out, EV-D68 Fermon ([2]; 30 µM): 109.948 and 106.039 and 109.278
EC50 ([2]; EVD68, HeLa R19, […], read-out: EC50 Exp1): 3.84 µM
EC50 ([2]; EVD68, HeLa R19, read-out: EC50 EV-D68): 1.37 ± 0.02 µM
EC50 [2, 10]: 4.6 ± 0.37 µM
EC50 [2, 11]: 3.55 ± 0.43 µM
EC50 [2, 12]: 3.53 ± 0.41 µM
EC50 [2, 13]: 1.82 ± 0.57 µM
EC50 [2, 14]: 3.91 ± 0.13 µM
EC50 ([2]; EVD68 / genotype 2c, HeLa R19, read-out: EC50 EV-D68 WT): 1.55 ± 0.17 µM
virus titer, TCID50/ml (Figure 2A) ([3]; compound concentration 10 µM): 316.228 TCID50/ml
virus titer, TCID50/ml (Figure 2A) ([3]; compound concentration 30 µM): 316.228 TCID50/ml
virus titer, TCID50/ml (Figure 2A) ([3]; compound concentration 100 µM): 316.228 TCID50/ml
virus titer, TCID50/ml (Figure 2A) ([3]; compound concentration 150 µM): 316.228 TCID50/ml
virus titer, TCID50/ml (Figure 2A) ([4]; compound concentration 10 µM): 2187.76 TCID50/ml and 1625.6 TCID50/ml
virus titer, TCID50/ml (Figure 2A) ([4]; compound concentration 30 µM): 2187.76 TCID50/ml and 1479.11 TCID50/ml
inhibition in single-cycle viral replication assay (in words) [5]: inhibited all representative viruses
DAT, Mean (Figure 8B) ([6]; 1µM): 99.9783
DAT, Mean as % (Figure 8B) ([6]; 1µM): 76%
DAT, Mean (Figure 8B) ([6]; 100µM): 90.1191
DAT, Mean as % (Figure 8B) ([6]; 100µM): 90%
inhibition of DAT function (in words) ([6]; HEK293 cells expressing human DAT, 1 μM or 100 μM): neither 12a, 19b, 19d, nor the combined compound 12b inhibited
cytotoxic effect in parallel to single-cycle assay (in words) [7]: none of them showed any cytotoxic effect
Cytotoxicity values, % compared to DMSO (Figure 2B) ([7]; compound concentration 0.01 µM): 101.341%
